From patent US9233932B2, “Oligomer-nitroimidazole anti-infective conjugates” (NEKTAR THERAPEUTICS, priority 2007, dated 2016)
In brackets after ≈: the same amount, converted by molar mass. Read-outs that look alike come from different tables or passages of the source.

Tests used:
Giardia intestinalis = test: In vitro antigiardial activity assay; assay type: cell-based
Experimental: Metronidazole (from two different sources) and samples prepared in accordance with Examples 1 and 2 were tested using conventional antimicrobial assay techniques for in vitro antigiardial activity at six concentrations with three-fold dilutions (10, 3.3, 1.1, 0.37, 0.122, 0.04 μg/mL). IC50 values (inhibition concentration) were determined.

[1] = tested on: Giardia intestinalis Portland-1 (ATCC 30888); test: Minimum inhibitory concentration determination, micro-broth dilution, trophozoite motility; assay type: cell-based; details: for Fold Difference (Parent vs. Derivative): MIC of derivative relative to metronidazole; for activity relative to parent metronidazole: qualitative statement on MIC results
Experimental: Briefly, minimum inhibitory concentration was evaluated in an anti-protozoal assay against a protozoan strain, Giardia intestinalis Portland-1 (ATCC 30888), isolated from human. The organism, also referred to as Giardia lamblia, causes infection in the small intestine.
The susceptibility of G. intestinalis to the test compounds was determined using the micro-broth dilution analysis. The protozoan strain was cultured according to the supplier's recommendations. Thirteen milliliters of growth media (TYI-S-33 supplemented with bile) was inoculated with 100 μL of G. intestinalis growing culture and incubated at 37° C. for 72 hours. Following incubation, each test compound was diluted (in growth medium) to two times the high test concentration then further diluted in 1:2 increments to yield 11 test concentrations. Each test concentration (100 μL) was added in triplicate to designated wells on the plate. Trophozoites were added to each well of a 96-well round bottom plate in a volume of 100 μL at a density of 40,000 per well. The plates were cultured for 24 hours in an anaerobic chamber to assure the presence of low oxygen level.
Following the treatment incubation, cultures were visually evaluated for trophozoite motility. At each concentration, data was recorded as positive or negative for motility.
Each test compound was dissolved in DMSO to a final concentration of 80 mM. […] The starting high test concentration was to be as high as possible.

[2] = average IC50 converted with MW, read-out: μM IC50
[3] = replicate 1, six concentrations, three-fold dilutions 10-0.04 μg/mL
[4] = replicate 2, six concentrations, three-fold dilutions 10-0.04 μg/mL
[5] = replicate 3, six concentrations, three-fold dilutions 10-0.04 μg/mL
[6] = lowest concentration completely inhibiting trophozoite motility, 24 hours, anaerobic chamber

| Molecule | IC50 (Giardia intestinalis; [2]) | Average IC50 (Giardia intestinalis; average of IC50 1-3) | Fold Difference (Parent vs. Derivative) [1] | IC50 1 (Giardia intestinalis; [3]) | IC50 2 (Giardia intestinalis; [4]) | IC50 3 (Giardia intestinalis; [5]) | MIC [1, 6] | activity relative to parent metronidazole [1] | also measured |
| --- | --- | --- | --- | --- | --- | --- | --- | --- | --- |
| Cc1ncc([N+](=O)[O-])n1CCO [Metronidazole, reference compound] | 3.96 µM | 0.68 µg/mL | 1 |  |  |  |  |  | IC50 (Giardia intestinalis; Giardia duodenalis, average IC50 converted with MW, read-out: μM IC50): 3.41 µM; IC50 (Giardia intestinalis; Giardia duodenalis, average of IC50 1-3, read-out: Average IC50): 0.58 µg/mL; IC50 (Giardia intestinalis; Giardia duodenalis, replicate 1, six concentrations, three-fold dilutions 10-0.04 μg/mL, read-out: IC50 1): 0.75 µg/mL; IC50 (Giardia intestinalis; Giardia duodenalis, replicate 2, six concentrations, three-fold dilutions 10-0.04 μg/mL, read-out: IC50 2): 0.3 µg/mL; IC50 (Giardia intestinalis; Giardia duodenalis, replicate 3, six concentrations, three-fold dilutions 10-0.04 μg/mL, read-out: IC50 3): 0.7 µg/mL; MIC ([1]; Giardia duodenalis, ATCC30888, Giardia intestinalis, read-out: MIC): 3.9 µg/mL (≈ 22.8 µM); MIC ([1]; Giardia duodenalis, ATCC30888, lowest concentration completely inhibiting trophozoite motility, 24 hours, anaerobic chamber, read-out: MIC): 3.9 µg/mL (≈ 22.8 µM) |
| COCCOCCOCCOCCOCCOCCOCCOC(=O)OCCn1c([N+](=O)[O-])cnc1C [PEG7 Metronidazole carbonate, mPEG7 metronidazole carbonate] | 7.51 µM | 4.03 µg/mL |  | 4.5 µg/mL (≈ 8.37 µM) | 4.2 µg/mL (≈ 7.81 µM) | 3.4 µg/mL (≈ 6.32 µM) |  |  |  |
| COCCOCCOCCOC(=O)OCCn1c([N+](=O)[O-])cnc1C [mPEG3 metronidazole carbonate] | 2.88 µM | 1.04 µg/mL | 2 | 0.82 µg/mL (≈ 2.27 µM) | 1.1 µg/mL (≈ 3.04 µM) | 1.2 µg/mL (≈ 3.32 µM) | 7.8 µg/mL (≈ 21.6 µM) |  | MIC ([1]; Giardia intestinalis): 7.8 µg/mL (≈ 21.6 µM) |
| COCCOCCOCCOCCOCCOCCOCCOCCOCCOCCOCCOC(=O)OCCn1c([N+](=O)[O-])cnc1C [mPEG11 metronidazole carbonate] |  |  | 256 |  |  |  | 1000 µg/mL (≈ 1400 µM) | reductions of activity |  |
| mPEG1k metronidazole carbonate |  |  | >256 |  |  |  | >1000 µg/mL | reductions of activity |  |
| mPEG21, metronidazole carbonate [mPEG21 metronidazole carbonate] |  |  | 256 |  |  |  | 1000 µg/mL | reductions of activity |  |
